# System: production of CD69 by B lymphocytes in human whole blood activated by crosslinking surface IgM
# Assay: CD69 human whole blood assay (Example 903), FACS
# Assay type: cell-based
# Details: B lymphocytes activated with goat F(ab')2 anti-human IgM, read-out: CD69 Hu Blood FACS IC50
# Excerpt: There is good evidence that B-cells play a key role in the pathogenesis of autoimmune and/or inflammatory disease. Protein-based therapeutics that deplete B cells such as Rituxan are effective against autoantibody-driven inflammatory diseases such as rheumatoid arthritis (Rastetter et al. (2004) Annu Rev Med 55:477). CD69 is the early activation marker in leukocytes including T cells, thymocytes, B cells, NK cells, neutrophils, and eosinophils. The CD69 human whole blood assay (Example 903) determines the ability of compounds to inhibit the production of CD69 by B lymphocytes in human whole blood activated by crosslinking surface IgM with goat F(ab′)2 anti-human IgM.
row,IC50 [nM],Compound
1,67.1,"CC(Nc1ncnc2[nH]cnc12)c1nc2ccc(F)cc2n1-c1ccccn1 (stereo not drawn) [Example 182, [1-(6-Fluoro-1-pyridin-2-yl-1H-benzoimidazol-2-yl)-ethyl]-(9H-purin-6-yl)-amine]"
2,39.5,"CC(Nc1ncnc2[nH]cnc12)c1nc2ccc(F)c(C#N)c2n1-c1ccccc1 (stereo not drawn) [Example 189, 5-Fluoro-3-phenyl-2-[1-(9H-purin-6-ylamino)-ethyl]-3H-benzoimidazole-4-carbonitrile]"

# Same assay, conditions: Homo sapiens, Lymphocyte, B lymphocytes activated with goat F(ab')2 anti-human IgM, read-out: CD69 Hu Blood FACS IC50
row,IC50 [nM],Compound
1,172,"OCC[C@H](Nc1ncnc2[nH]cnc12)c1nc2ccc(F)cc2n1-c1ccccn1 [Example 304, (S)-3-(6-Fluoro-1-pyridin-2-yl-1H-benzoimidazol-2-yl)-3-(9H-purin-6-ylamino)-propan-1-ol]"
2,224,"C[C@H](Nc1ncnc(N)c1C#N)c1nc2ccc(F)c(-c3ccccc3)c2n1C1CC1 [Example 415, 4-amino-6-[[(1S)-1-(1-cyclopropyl-6-fluoro-7-phenyl-benzimidazol-2-yl)ethyl]amino]pyrimidine-5-carbonitrile]"
3,52.1,"C[C@H](Nc1ncnc2[nH]cnc12)c1nc2ccc(F)cc2n1-c1cccc(F)c1 [Example 185, {(S)-1-[6-Fluoro-1-(3-fluoro-phenyl)-1H-benzoimidazol-2-yl]-ethyl}-(9H-purin-6-yl)-amine]"
4,797,"C[C@H](Nc1ncnc(N)c1C#N)c1nc2ccc(F)c(-c3ccccn3)c2n1C1CC1 [Example 442, 4-Amino-6-[(S)-1-(1-cyclopropyl-6-fluoro-7-pyridin-2-yl-1H-benzoimidazol-2-yl)ethylamino]-pyrimidine-5-carbonitrile]"
5,152,"CC(Nc1ncnc2[nH]cnc12)c1nc2ccc(F)cc2n1-c1ccc(F)cc1 (stereo not drawn) [Example 221, {1-[6-Fluoro-1-(4-fluoro-phenyl)-1H-benzoimidazol-2-yl]-ethyl}-(9H-purin-6-yl)-amine]"
6,119,"OCC[C@H](Nc1ncnc2[nH]cnc12)c1nc2ccc(F)cc2n1-c1ccccc1 [Example 187, (S)-3-(6-Fluoro-1-phenyl-1H-benzoimidazol-2-yl)-3-(9H-purin-6-ylamino)-propan-1-ol]"
7,3.44,"Cc1nc(N)nc(N[C@@H](C)c2nc3ccc(F)cc3n2-c2ccccc2)c1C#N [Example 328, 2-Amino-4-[(S)-1-(6-fluoro-1-phenyl-1H-benzoimidazol-2-yl)-ethylamino]-6-methyl-pyrimidine-5-carbonitrile]"
8,48.3,"Cc1c(F)ccc2nc([C@H](C)Nc3ncnc(N)c3C#N)n(-c3ccccn3)c12 [Example 289, 4-Amino-6-[(S)-1-(6-fluoro-7-methyl-1-pyridin-2-yl-1H-benzoimidazol-2-yl)-ethylamino]-pyrimidine-5-carbonitrile]"
9,2.83,"CC(Nc1ncnc2[nH]cnc12)c1nc2ccc(F)c(C(=O)N3CCOCC3)c2n1-c1ccccc1 (stereo not drawn) [Example 203, {5-Fluoro-3-phenyl-2-[1-(9H-purin-6-ylamino)-ethyl]-3H-benzoimidazol-4-yl}-morpholin-4-yl-methanone]"
10,514,"N#Cc1c(N)ncnc1NCc1nc2ccc(F)cc2n1-c1ccccc1 [Example 371, 4-amino-6-((6-fluoro-1-phenyl-1H-benzo[d]imidazol-2-yl)methylamino)pyrimidine-5-carbonitrile]"
11,> 5000,"Fc1ccc2nc(CNc3ncnc4[nH]cnc34)n(-c3ccccc3)c2c1 [Example 443, (6-Fluoro-1-phenyl-1H-benzoimidazol-2-ylmethyl)-(9H-purin-6-yl)amine]"
12,25.4,"CC(Nc1ncnc2[nH]cnc12)c1nc2ccc(F)cc2n1-c1cncc(F)c1 (stereo not drawn) [Example 263, {1-[6-Fluoro-1-(5-fluoro-pyridin-3-yl)-1H-benzoimidazol-2-yl]-ethyl}-(9H-purin-6-yl)-amine]"
13,26.8,"C[C@H](Nc1ncnc2[nH]cnc12)c1nc2ccc(F)c(C3CC3)c2n1-c1ccccn1 [Example 274, [(S)-1-(7-Cyclopropyl-6-fluoro-1-pyridin-2-yl-1H-benzoimidazol-2-yl)-ethyl]-(9H-purin-6-yl)-amine]"
14,81.7,"C[C@H](Nc1ncnc2[nH]cnc12)c1nc2ccc(F)cc2n1-c1ccncn1 [Example 332, [(S)-1-(6-Fluoro-1-pyrimidin-4-yl-1H-benzoimidazol-2-yl)-ethyl]-(9H-purin-6-yl)-amine]"
15,97.2,"C[C@H](Nc1ncnc(N)c1C#N)c1nc2ccc(F)c(C#N)c2n1-c1ccccn1 [Example 291, 2-[(S)-1-(6-Amino-5-cyano-pyrimidin-4-ylamino)-ethyl]-5-fluoro-3-pyridin-2-yl-3H-benzoimidazole-4-carbonitrile]"
16,196,"CC(Nc1ncnc2[nH]cnc12)c1nc2ccc(F)c(O)c2n1-c1ccccc1 (stereo not drawn) [Example 327, 5-Fluoro-3-phenyl-2-[1-(9H-purin-6-ylamino)-ethyl]-3H-benzoimidazol-4-ol]"
17,35.5,"C[C@H](Nc1ncnc(N)c1C#N)c1nc2cccc(C3CC3)c2n1-c1cccnc1 [Example 299, 4-Amino-6-[(S)-1-(7-cyclopropyl-1-pyridin-3-yl-1H-benzoimidazol-2-yl)-ethylamino]-pyrimidine-5-carbonitrile]"

row,IC50 [nM],Compound
1,79.3,"CC[C@H](Nc1ncnc2[nH]cnc12)c1nc2ccc(F)c(C#N)c2n1-c1ccccc1 [Example 244, 5-Fluoro-3-phenyl-2-[(S)-1-(9H-purin-6-ylamino)-propyl]-3H-benzoimidazole-4-carbonitrile]"
2,54.7,"CC(C)C(Nc1ncnc2[nH]cnc12)c1nc2ccc(F)cc2n1-c1cccnc1 (stereo not drawn) [Example 206, [1-(6-Fluoro-1-pyridin-3-yl-1H-benzoimidazol-2-yl)-2-methyl-propyl]-(9H-purin-6-yl)-amine]"
3,895,"C[C@H](Nc1ncnc(N)c1C#N)c1nc2ccc(F)c(-c3ccccn3)c2n1C [Example 411, 4-amino-6-[[(1S)-1-[6-fluoro-1-methyl-7-(2-pyridyl)benzimidazol-2-yl]ethyl]amino]pyrimidine-5-carbonitrile]"
4,68.3,"C[C@H](Nc1ncnc2[nH]cnc12)c1nc2ccc(F)cc2n1[C@@H]1CCCN(CCO)C1 [Example 256, 2-((R)-3-{6-Fluoro-2-[(S)-1-(9H-purin-6-ylamino)-ethyl]-benzoimidazol-1-yl}-piperidin-1-yl)-ethanol]"
5,96.6,"C[C@H](Nc1ncnc(N)c1C#N)c1nc2cccnc2n1-c1ccccc1 [Example 337, 4-Amino-6-[(S)-1-(3-phenyl-3H-imidazo[4,5-b]pyridin-2-yl)-cthylamino]-pyrimidine-5-carbonitrile]"
6,38.8,"COC[C@H](Nc1ncnc(N)c1C#N)c1nc2ccc(F)cc2n1-c1ccccn1 [Example 271, 4-Amino-6-[(R)-1-(6-fluoro-1-pyridin-2-yl-1H-benzoimidazol-2-yl)-2-methoxy-ethylamino]-pyrimidine-5-carbonitrile]"
7,67.5,"CC(Nc1ncnc2[nH]cnc12)c1nc2ccc(F)c(C(=O)N(C)C)c2n1-c1ccccc1 (stereo not drawn) [Example 204, 5-Fluoro-3-phenyl-2-[1-(9H-purin-6-ylamino)-ethyl]-3H-benzoimidazole-4-carboxylic acid dimethylamide]"
8,18.8,"C[C@H](Nc1ncnn2ccnc12)c1nc2ccc(F)cc2n1-c1ccccc1 [Example 321, [(S)-1-(6-Fluoro-1-phenyl-1H-benzoimidazol-2-yl)-ethyl]-imidazo[2,1-f][1,2,4]triazin-4-yl-amine]"
9,64.7,"C[C@H](Nc1ncnc(N)c1C#N)c1nc2ccc(F)cc2n1-c1ccn(C)n1 [Example 402, 4-amino-6-[[(1S)-1-[6-fluoro-1-(1-methylpyrazol-3-yl)benzimidazol-2-yl]ethyl]amino]pyrimidine-5-carbonitrile]"
10,43.3,"C[C@H](Nc1ncnc2[nH]cnc12)c1nc2ccc(F)cc2n1-c1cnn(C)c1 [Example 419, N-[(1S)-1-[6-fluoro-1-(1-methylpyrazol-4-yl)benzimidazol-2-yl]ethyl]-9H-purin-6-amine]"
11,405,"CC[C@H](Nc1ncnc2[nH]cnc12)c1nc2ccc(F)cc2n1-c1ccccn1 [Example 247, [(S)-1-(6-Fluoro-1-pyridin-2-yl-1H-benzoimidazol-2-yl)-propyl]-(9H-purin-6-yl)-amine]"
12,16.6,"C[C@H](Nc1ncnc2[nH]cnc12)c1nc2ccc(F)cc2n1[C@H]1CCCN(CCO)C1 [Example 278, 2-((S)-3-{6-Fluoro-2-[(S)-1-(9H-purin-6-ylamino)-ethyl]-benzoimidazol-1-yl}-piperidin-1-yl)-ethanol]"
13,58.2,"CC(C)N1CC(n2c([C@H](C)Nc3ncnc4[nH]cnc34)nc3ccc(F)cc32)C1 [Example 380, N-[(1S)-1-[6-fluoro-1-(1-isopropylazetidin-3-yl)benzimidazol-2-yl]ethyl]-9H-purin-6-amine]"
14,26.2,"Cc1c(F)ccc2nc([C@H](C)Nc3ncnc4[nH]cnc34)n(-c3ccccc3)c12 [Example 183, [(S)-1-(6-Fluoro-7-methyl-1-phenyl-1H-benzoimidazol-2-yl)-ethyl]-(9H-purin-6-yl)-amine]"
15,14.1,"CC(Nc1ncnc2[nH]cnc12)c1nc2ccc(F)c(C(=O)N3CCN(C)CC3)c2n1-c1ccccc1 (stereo not drawn) [Example 202, {5-Fluoro-3-phenyl-2-[1-(9H-purin-6-ylamino)-ethyl]-3H-benzoimidazol-4-yl}-(4-methyl-piperazin-1-yl)-methanone]"
16,2.87,"C[C@H](Nc1ncnc(N)c1C#N)c1nc2ccc(F)c(C3CC3)c2n1-c1cccnc1 [Example 306, 4-Amino-6-[(S)-1-(7-cyclopropyl-6-fluoro-1-pyridin-3-yl-1H-benzoimidazol-2-yl)-ethylamino]-pyrimidine-5-carbonitrile]"
17,146,"C[C@H](Nc1ncnc2[nH]cnc12)c1nc2ccc(F)cc2n1[C@H]1C[C@@H](O)C1 [Example 390, 3-[6-fluoro-2-[(1S)-1-(9H-purin-6-ylamino)ethyl]benzimidazol-1-yl]cyclobutanol]"

# Source: patent US8653089B2, “Heterocyclic compounds and methods of use” (F. Hoffmann-La Roche AG, priority 2011, dated 2014)
